According to patent US6946253B2, “Herpes zinc finger motifs” (University Court of the University of Glasgow, priority 2000, dated 2005):

Key:
[1] = system: herpes simplex virus type 1 (HSV-1) strain 17; test: Virus replication (virus yield) in BHK21/C13 cells; assay type: cell-based; settings: moi 5, 24 h pi
Experimental: (§1) Virus replication. Semi-confluent monolayers of BHK21/C13 cells (2×10^6) were pre-incubated with the appropriate drug concentration, 0.1% DMSO (v/v) or mock treated as a control for 24 h and subsequently infected at a multiplicity of infection (moi) of 5 plaque forming units (pfu)/cell with either herpes simplex virus type 1 (HSV-1) strain 17 or HSV-2 strain HG52 and harvested 24 h post-infection (pi). The virus yield was determined by releasing the virus into the supernatant by sonication and titration on BHK21/C13 cells. Results were expressed as pfu/10^6 cells and % reduction in yield as compared to the untreated control (23).
(§2) Antiviral effect of ADA and DIBA. Two experiments were carried out. In the first, the effect of varying concentrations of ADA and DIBA on the replication of HSV-1 was analysed. In the second, the effect on both HSV-1 and HSV-2 was determined.

HSV-2 strain HG52 = test: Virus replication (virus yield) in BHK21/C13 cells; assay type: cell-based, herpes simplex virus type 2; settings: experiment 2 (Table 2), moi 5, 24 h pi
Experimental: as §1, §2

HSV-2 = test: Plaque reduction assay in BHK21/C13 cells; assay type: cell-based, herpes simplex virus type 2; settings: HSV-2, plaque reduction assay
Experimental: Plaque reduction assay. Confluent monolayers (4×10^6 cells) of BHK21/C13 cells were preincubated with the appropriate drug concentration, 0.1% DMSO(v/v) or mock treated as a control for 24 h and subsequently infected at a moi of 400 pfu/plate with either HSV-1 or HSV-2 and incubated for 48 h at 37° C. […] Tests of each drug concentration were performed in triplicate and the average of the 3 plates calculated. […]
(§3) Plaquing Efficiency in the Presence of ADA and DIBA. To determine if the reduction in virus yield seen in the previous experiment was due to a virucidal effect, inhibition of virus entry (adsorption penetration) or intracellular replication, a plaque reduction assay was carried out. Here, the ability of the virus to plaque was measured. An effect on the stability of the virus particle or virus entry would lead to a reduction in the number of plaques compared to the control untreated plates for a given amount of virus. In contrast, an effect on intracellular virus replication would not lead to a significant reduction in plaques.

HSV-1 = test: Plaque reduction assay in BHK21/C13 cells; assay type: cell-based, herpes simplex virus type 1; settings: HSV-1, plaque reduction assay
Experimental: Plaque reduction assay. Confluent monolayers (4×10^6 cells) of BHK21/C13 cells were preincubated with the appropriate drug concentration, 0.1% DMSO(v/v) or mock treated as a control for 24 h and subsequently infected at a moi of 400 pfu/plate with either HSV-1 or HSV-2 and incubated for 48 h at 37° C. […] Tests of each drug concentration were performed in triplicate and the average of the 3 plates calculated. Results were expressed as pfu/plate and % of the number of plaques on the untreated control plates (23).
as §3

[2] = system: baby hamster kidney BHK21/C13 cells; test: Cytotoxicity, Trypan Blue exclusion staining; assay type: cell-based; settings: 100 μM (highest concentration), up to 4 days
Experimental: Cytotoxicity. Both compounds azodicarbonamide (ADA, NSC 674447) and 2,2′,-dithiobisbenzamide (DIBA, NSC 654077) were dissolved at the appropriate concentration in 0.1% (v/v) dimethylsulphoxide (DMSO) in Eagle's modified medium. Confluent monolayers (2×10^6) of baby hamster kidney BHK21/C13 cells were incubated with various concentrations of either ADA or DIBA (1,10,100 μM) or as a control 0.1% (v/v) DMSO, and cell viability determined every day for 4 days by Trypan Blue exclusion staining (23).
Determination or cytotoxicity of ADA and DIBA. In view of the distinctive sequence conservation of the IE63 zinc finger two previously known zinc-ejecting anti-HIV-1 compounds, 2,2′-dithiobisbenzamide (DIBA) and azodicarbonamide (ADA) were tested for their effect on herpesvirus. To separate any effect on cell viability from a specific effect on virus replication, the effect of incubating BHK21/C13 cells in various concentrations of ADA, DIBA, and 0.1% (v/v) DMSO as a control, for up to 4 days was determined. Even at the highest concentration used (100 μM) 95% of the cells were viable compared to untreated BHK21/C13 cells (data not shown). Indeed any cytotoxicity observed was due to the DMSO in which the drugs were dissolved, as the cytotoxicity was equally great in those cells incubated with only DMSO (data not shown).

[3] = experiment 1 (Table 1), HSV-1, 1 μM
[4] = experiment 1 (Table 1), HSV-1, 10 μM
[5] = experiment 1 (Table 1), HSV-1, 100 μM
[6] = experiment 2 (Table 2), HSV-1, 1 μM
[7] = experiment 2 (Table 2), HSV-1, 10 μM
[8] = experiment 2 (Table 2), HSV-1, 100 μM

SMILES	% UNTREATED CONTROL (virus yield) [1, 3] [%]	VIRUS YIELD (pfu/10^6 BHK cells) [1, 3]	VIRUS YIELD (pfu/BHK cell) [1, 3] [pfu/BHK cell]	% UNTREATED CONTROL (virus yield) [1, 4] [%]	VIRUS YIELD (pfu/10^6 BHK cells) [1, 4]	VIRUS YIELD (pfu/BHK cell) [1, 4] [pfu/BHK cell]	% UNTREATED CONTROL (virus yield) [1, 5] [%]	VIRUS YIELD (pfu/10^6 BHK cells) [1, 5]	VIRUS YIELD (pfu/BHK cell) [1, 5] [pfu/BHK cell]	% UNTREATED CONTROL (virus yield) [1, 6] [%]	VIRUS YIELD (pfu/10^6 BHK cells) [1, 6]	VIRUS YIELD (pfu/BHK cell) [1, 6] [pfu/BHK cell]	% UNTREATED CONTROL (virus yield) [1, 7] [%]	VIRUS YIELD (pfu/10^6 BHK cells) [1, 7]	VIRUS YIELD (pfu/BHK cell) [1, 7] [pfu/BHK cell]	VIRUS YIELD (pfu/10^6 BHK cells) [1, 8]	VIRUS YIELD (pfu/BHK cell) [1, 8] [pfu/BHK cell]	% UNTREATED CONTROL (virus yield) (HSV-2 strain HG52; HSV-2, 1 μM) [%]	VIRUS YIELD (pfu/10^6 BHK cells) (HSV-2 strain HG52; HSV-2, 1 μM)	VIRUS YIELD (pfu/BHK cell) (HSV-2 strain HG52; HSV-2, 1 μM)	further results
NC(=O)N=NC(N)=O [ADA, azodicarbonamide]	76	6.1 × 10^8 pfu/10^6 BHK cells	610	19	1.5 × 10^8 pfu/10^6 BHK cells	150	11	9 × 10^6 pfu/10^6 BHK cells	9.0	15	9.3 × 10^7 pfu/10^6 BHK cells	93	1.4	8.5 × 10^6 pfu/10^6 BHK cells	8.5	1.2 × 10^6 pfu/10^6 BHK cells	1.2	13	9.4 × 10^6 pfu/10^6 BHK cells	9.4	% UNTREATED CONTROL (virus yield) (HSV-2 strain HG52; HSV-2, 10 μM): 1.2%; VIRUS YIELD (pfu/10^6 BHK cells) (HSV-2 strain HG52; HSV-2, 10 μM): 8.5 × 10^5 pfu/10^6 BHK cells; VIRUS YIELD (pfu/BHK cell) (HSV-2 strain HG52; HSV-2, 10 μM): 0.85 pfu/BHK cell; VIRUS YIELD (pfu/10^6 BHK cells) (HSV-2 strain HG52; HSV-2, 100 μM): 2.3 × 10^5 pfu/10^6 BHK cells; VIRUS YIELD (pfu/BHK cell) (HSV-2 strain HG52; HSV-2, 100 μM): 0.23 pfu/BHK cell; size of the plaques (HSV-2): reduction in the size of the plaques; size of the plaques (HSV-1): reduction in the size of the plaques; cells viable compared to untreated BHK21/C13 cells [2]: 95%
NC(=O)c1ccccc1SSc1ccccc1C(N)=O [DIBA, 2,2′-dithiobisbenzamide]	85	6.8 × 10^8 pfu/10^6 BHK cells	680	20	1.6 × 10^8 pfu/10^6 BHK cells	160	2.5	2 × 10^7 pfu/10^6 BHK cells	20	20	1.2 × 10^8 pfu/10^6 BHK cells	120	1.6	9.6 × 10^6 pfu/10^6 BHK cells	9.6	1.9 × 10^6 pfu/10^6 BHK cells	1.9	17	1.2 × 10^7 pfu/10^6 BHK cells	12	% UNTREATED CONTROL (virus yield) (HSV-2 strain HG52; HSV-2, 10 μM): 2%; VIRUS YIELD (pfu/10^6 BHK cells) (HSV-2 strain HG52; HSV-2, 10 μM): 1.4 × 10^6 pfu/10^6 BHK cells; VIRUS YIELD (pfu/BHK cell) (HSV-2 strain HG52; HSV-2, 10 μM): 1.4 pfu/BHK cell; VIRUS YIELD (pfu/10^6 BHK cells) (HSV-2 strain HG52; HSV-2, 100 μM): 3.1 × 10^5 pfu/10^6 BHK cells; VIRUS YIELD (pfu/BHK cell) (HSV-2 strain HG52; HSV-2, 100 μM): 0.31 pfu/BHK cell; size of the plaques (HSV-2): reduction in the size of the plaques; size of the plaques (HSV-1): reduction in the size of the plaques; cells viable compared to untreated BHK21/C13 cells [2]: 95%
